Results reported in US20260356835A1, “BICYCLIC HETEROARYL COMPOUNDS” (QuantX Biosciences US, Inc., priority 2023, published 2026).

What was measured:
[1] = target: T1, N-his8-TEV-hPARG (389-976) (Homo sapiens, UniProt Q86W56); assay: PARG Biochemical Enzymatic Assay (PARG inhibition HTRF assay); conditions: 62.5 pM PARG, 5 nM Biotin-Parylated PARP1 substrate, 60 minutes preincubation, 10 minutes reaction at 23 °C
T1 construct: N-his8-TEV-hPARG (389-976); His8 (N); TEV protease cleavage site (N); made in house; host or cells: E. coli BL21(DE3)
Experimental: PARG Biochemical Enzymatic Assay
TEV-His8-PolyADP-Ribose Polymerase 1 (379-1014) (PARP1) and N-his8-TEV-hPARG (389-976) were used to transform BL21(DE3) competent cells followed by growth for 1 hour at 37 °C and plating on Kanamycin resistant agar plates. A single colony was then inoculated into 1 ml of Luria Broth and expansion into a 1 liter scale for growth at 37 °C for 3 hours. Expression was induced via 0.2 mM IPTG induction for 20 hours at 16 °C in BL21(DE3) E. coli. Purification was then performed using a Nickel column, size exclusion chromatography and HPLC analysis.
For substrate preparation, […] nicked DNA and 2 μM PARP1 protein were mixed for 10 minutes at 25 °C 10 μM biotin-NAD+ and 100 μM NAD+ were then added and incubated for 60 minutes at 30 °C to yield PARylated PARP1 substrate.
For compound screening, compounds were serially diluted to a 3× final concentration in assay buffer (Tris pH7.5 50 mM, KCl 50 mM, Tween-20 0.01%, BSA 0.1 mg/ml, EDTA 3 mM, EGTA 0.4 mM, DTT 1 mM) containing 1% DMSO. A top concentration of 1.5 μM for a 10-point dose response curve using a 1:3 dilution curve was used. 2.5×PARG (156.25 pM working concentration, 62.5 pM final concentration) was prepared in assay buffer and 4 ul added to a 384 well assay plate containing 2 μl of serially diluted compound. The plate was then centrifuged for 10 seconds and incubated for 60 minutes at 23 °C. 4 μl of 2.5× Biotin-Parylated PARP1 (12.5 nM working concentration, 5 nM final concentration) was then added to the plate and incubated for 10 minutes at 23 °C. 4 μl of […] Detection reagent containing 0.44 μg/ml of Streptavidin-Europium cryptate and 4 μg/ml of anti-6His-XL665 monoclonal antibody was added to the plate and incubated for 60 minutes at 23 °C. The Homogeneous Time Resolved Fluorescent (HTRF) signal was then measured on an Envision plate reader using and excitation wavelength of 337 nm and emission wavelengths of 615 nm and 665 nm. Normalized percent inhibition was then calculated using the following equation: % Inhibition normalized=(compound signal-min signal)/(max signal-min signal)*100%, where Maximum signal was substrate only wells and Minimum signal was enzyme and substrate well. IC50 was calculated by fitting % Inhibition values and log of compound concentrations to nonlinear regression (log(inhibitor) vs. response—Variable slope(four parameters)) with GraphPad 9.4.1
For biochemical activity, bracket is denoted as: A<100 nM; 100 nM<B<500 nM; C>500 nM

Kuramochi cells = assay: Cellular Viability Assay (5 day Kuramochi cell viability, CellTiter-Glo); type: cell-based; conditions: 5 days, 37 °C, growth inhibition relative to Day 0 (T0) and DMSO
Experimental: Kuramochi cells were seeded at a density of 1000 cells per well in a 384-well, white, sterile, clear bottom plate, using a Multidrop liquid dispenser and incubated for 24 hours at 37 °C in a 5% CO2 humidified environment. 24 hours later, compounds were added starting at a top dose of 10 μM for a 9-point dose response curve at a 1:3 dilution using an iDOT HT liquid handler and incubated for 5 days at 37 °C in a 5% CO2 humidified environment. After 5 days and at Day 0, plates were incubated at room temperature for 30 minutes followed by the addition of 30 μl of CellTiter-Glo Reagent. Plates were then mixed for 10 minutes on an orbital shaker followed by incubation at room temperature for 20 minutes. Luminescence was then read using the Envision plate reader. Percent Growth Inhibition was then calculated using the following equation: Percent Growth Inhibition normalized=100−(compound signal−T0)/(max signal−T0)*100%, where Max Signal refers to the DMSO only treated cells and T0 refers to the Day0 viability measurement. Growth Inhibition 50 was then calculated using the following equation: Y=Bottom+(Top−Bottom)/(1+10^((Log IC50−X)*hillslope)).
For cell activity, bracket is denoted as: A<1 uM; 1 uM<B<5 uM; C>5 uM.

T1 sequence (Q86W56 389-976): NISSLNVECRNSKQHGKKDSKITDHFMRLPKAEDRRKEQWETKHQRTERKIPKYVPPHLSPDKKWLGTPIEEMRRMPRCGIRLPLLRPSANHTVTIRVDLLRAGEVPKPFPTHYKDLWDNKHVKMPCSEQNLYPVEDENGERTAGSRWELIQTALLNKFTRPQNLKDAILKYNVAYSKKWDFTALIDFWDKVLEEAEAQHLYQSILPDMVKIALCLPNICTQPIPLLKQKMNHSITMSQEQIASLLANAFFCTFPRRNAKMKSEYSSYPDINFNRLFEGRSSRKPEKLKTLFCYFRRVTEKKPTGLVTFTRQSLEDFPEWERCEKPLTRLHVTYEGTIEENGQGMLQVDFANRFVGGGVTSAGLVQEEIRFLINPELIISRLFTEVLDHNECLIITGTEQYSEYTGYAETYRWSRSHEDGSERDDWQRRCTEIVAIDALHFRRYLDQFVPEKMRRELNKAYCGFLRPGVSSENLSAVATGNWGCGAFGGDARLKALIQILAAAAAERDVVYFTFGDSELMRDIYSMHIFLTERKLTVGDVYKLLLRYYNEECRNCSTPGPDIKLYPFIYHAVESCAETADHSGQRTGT

| IC50 [1] [nM] | SMILES | IC50 (Kuramochi cells) [nM] |
| --- | --- | --- |
| < 100 | CC1(NS(=O)(=O)c2cc(N3CCC4(CC3)COC4)n3cnc(-c4nnc(C(F)F)s4)c3c2)CC1 [Example 34, 1-(5-(difluoromethyl)-1,3,4-thiadiazol-2-yl)-N-(1-methylcyclopropyl)-5-(2-oxa-7-azaspiro[3.5]nonan-7-yl)imidazo[1,5-a]pyridine-7-sulfonamide] | < 1000 |
| < 100 | O=S(=O)(NC1(C(F)F)CC1)c1cc(N2CCC3(CC2)COC3)c2ncc(-c3nnc(C(F)F)s3)n2c1 [Example 37, 3-(5-(difluoromethyl)-1,3,4-thiadiazol-2-yl)-N-(1-(difluoromethyl)cyclopropyl)-8-(2-oxa-7-azaspiro[3.5]nonan-7-yl)imidazo[1,2-a]pyridine-6-sulfonamide] | < 1000 |
| < 100 | N#CC1(NS(=O)(=O)c2cc(N3CCC4(CC3)COC4)n3ncc(-c4nnc(C(F)F)s4)c3c2)CC1 [Example 2, N-(1-cyanocyclopropyl)-3-(5-(difluoromethyl)-1,3,4-thiadiazol-2-yl)-7-(2-oxa-7-azaspiro[3.5]nonan-7-yl)pyrazolo[1,5-a]pyridine-5-sulfonamide] | < 1000 |
| < 100 | CC1(NS(=O)(=O)c2cc(N3CCC4(CC3)COC4)n3ncc(-c4nnc(C(F)(F)F)s4)c3c2)CC1 [Example 14, N-(1-methylcyclopropyl)-7-(2-oxa-7-azaspiro[3.5]nonan-7-yl)-3-(5-(trifluoromethyl)-1,3,4-thiadiazol-2-yl)pyrazolo[1,5-a]pyridine-5-sulfonamide] | < 1000 |
| < 100 | Cc1nnc(N2CCN(c3cc(S(=O)(=O)NC4(C#N)CC4)cc4c(-c5nnc(C(F)F)s5)cnn34)CC2)o1 [Example 24, N-(1-cyanocyclopropyl)-3-[5-(difluoromethyl)-1,3,4-thiadiazol-2-yl]-7-[4-(5-methyl-1,3,4-oxadiazol-2-yl)piperazin-1-yl]pyrazolo[1,5-a]pyridine-5-sulfonamide] | < 1000 |
| < 100 | CC1(NS(=O)(=O)c2cc(N3CCC4(CC3)COC4)n3ncc(-c4nnc(C(F)F)s4)c3c2)CC1 [Example 1, 3-(5-(difluoromethyl)-1,3,4-thiadiazol-2-yl)-N-(1-methylcyclopropyl)-7-(2-oxa-7-azaspiro[3.5]nonan-7-yl)pyrazolo[1,5-a]pyridine-5-sulfonamide] | < 1000 |
| < 100 | CC1(NS(=O)(=O)c2cc(N3CCC4(CC3)COC4)n3ncc(-c4nnc(C5(C#N)CC5)s4)c3c2)CC1 [Example 8, 3-(5-(1-cyanocyclopropyl)-1,3,4-thiadiazol-2-yl)-N-(1-methylcyclopropyl)-7-(2-oxa-7-azaspiro[3.5]nonan-7-yl)pyrazolo[1,5-a]pyridine-5-sulfonamide] | < 1000 |
| < 100 | O=S(=O)(NC1(C(F)F)CC1)c1cc(N2CCC3(CC2)COC3)n2cnc(-c3nnc(C(F)F)s3)c2c1 [Example 35, 1-(5-(difluoromethyl)-1,3,4-thiadiazol-2-yl)-N-(1-(difluoromethyl)cyclopropyl)-5-(2-oxa-7-azaspiro[3.5]nonan-7-yl)imidazo[1,5-a]pyridine-7-sulfonamide] | < 1000 |
| 100 to 500 | Cc1nnc(-c2cnn3c(N4CCC5(CC4)COC5)cc(S(=O)(=O)NC4(C)CC4)cc23)o1 [Example 9, 3-(5-methyl-1,3,4-oxadiazol-2-yl)-N-(1-methylcyclopropyl)-7-(2-oxa-7-azaspiro[3.5]nonan-7-yl)pyrazolo[1,5-a]pyridine-5-sulfonamide] | < 1000 |
| < 100 | C#CC1(NS(=O)(=O)c2cc(N3CCC4(CC3)COC4)n3ncc(-c4nnc(C(F)F)s4)c3c2)CC1 [Example 4, 3-(5-(difluoromethyl)-1,3,4-thiadiazol-2-yl)-N-(1-ethynylcyclopropyl)-7-(2-oxa-7-azaspiro[3.5]nonan-7-yl)pyrazolo[1,5-a]pyridine-5-sulfonamide] | < 1000 |
| < 100 | N#CC1(NS(=O)(=O)c2cc(C3CCN(C(=O)C4CC4)CC3)n3ncc(-c4nnc(C(F)F)s4)c3c2)CC1 [Example 11, N-(1-cyanocyclopropyl)-7-[1-(cyclopropanecarbonyl)-4-piperidyl]-3-[5-(difluoromethyl)-1,3,4-thiadiazol-2-yl]pyrazolo[1,5-a]pyridine-5-sulfonamide] | < 1000 |
| < 100 | N#CC1(NS(=O)(=O)c2cc(N3CCN(C(=O)N4CC[C@H](F)C4)CC3)n3ncc(-c4nnc(C(F)F)s4)c3c2)CC1 [Example 22, (S)-N-(1-cyanocyclopropyl)-3-(5-(difluoromethyl)-1,3,4-thiadiazol-2-yl)-7-(4-(3-fluoropyrrolidine-1-carbonyl)piperazin-1-yl)pyrazolo[1,5-a]pyridine-5-sulfonamide] | < 1000 |
| < 100 | CC1(NS(=O)(=O)c2cc(N3CCC4(CC3)COC4)n3ncc(-c4nc(C(F)F)cs4)c3c2)CC1 [Example 15, 3-(4-(difluoromethyl)thiazol-2-yl)-N-(1-methylcyclopropyl)-7-(2-oxa-7-azaspiro[3.5]nonan-7-yl)pyrazolo[1,5-a]pyridine-5-sulfonamide] | < 1000 |
| < 100 | N#CC1(NS(=O)(=O)c2cc3c(-c4nnc(C(F)F)s4)ncn3c(N3CCC4(CC3)COC4)c2F)CC1 [Example 41, N-(1-cyanocyclopropyl)-1-(5-(difluoromethyl)-1,3,4-thiadiazol-2-yl)-6-fluoro-5-(2-oxa-7-azaspiro[3.5]nonan-7-yl)imidazo[1,5-a]pyridine-7-sulfonamide] |  |
| > 500 | CC(=O)N1CCN(c2cc(S(=O)(=O)NC3(C)CC3)cc3c2cnn3-c2nc3c(s2)C(C)(O)COC3)CC1 (centres unmarked) [Example 30, 4-(4-acetylpiperazin-1-yl)-1-(7-hydroxy-7-methyl-6,7-dihydro-4H-pyrano[3,4-d]thiazol-2-yl)-N-(1-methylcyclopropyl)-1H-indazole-6-sulfonamide] |  |
| > 500 | O=C(N1CCN(c2cc(S(=O)(=O)NC34CC(C3)C4)cc3c2cnn3-c2nnc(C(F)F)s2)CC1)N1CC[C@H](O)C1 [Example 27, N-(1-bicyclo [1.1.1]pentanyl)-1-[5-(difluoromethyl)-1,3,4-thiadiazol-2-yl]-4-[4-[(3S)-3-hydroxypyrrolidine-1-carbonyl]piperazin-1-yl] indazole-6-sulfonamide] |  |
| 100 to 500 | CC(=O)N1CCN(c2cc(S(=O)(=O)NC3(C)CC3)cc3c2cnn3-c2nnc(C3(O)CCC3)s2)CC1 [Example 29, 4-(4-acetylpiperazin-1-yl)-1-[5-(1-hydroxycyclobutyl)-1,3,4-thiadiazol-2-yl]-N-(1-methylcyclopropyl)indazole-6-sulfonamide] |  |
| < 100 | CC1(NS(=O)(=O)c2cc(N3CCC4(CC3)COC4)n3ncc(-c4nc(C(F)F)ns4)c3c2)CC1 [Example 25, 3-(3-(difluoromethyl)-1,2,4-thiadiazol-5-yl)-N-(1-methylcyclopropyl)-7-(2-oxa-7-azaspiro[3.5]nonan-7-yl)pyrazolo[1,5-a]pyridine-5-sulfonamide] |  |
| < 100 | CC(=O)N1CCN(c2cc(S(=O)(=O)NC3(C)CC3)cn3c(-c4nnc(C5(C#N)CC5)s4)cnc23)CC1 [Example 38, 8-(4-acetylpiperazin-1-yl)-3-(5-(1-cyanocyclopropyl)-1,3,4-thiadiazol-2-yl)-N-(1-methylcyclopropyl)imidazo[1,2-a]pyridine-6-sulfonamide] |  |
